Patent publication US20250388605A1, “HETEROBIFUNCTIONAL COMPOUNDS AND METHODS OF TREATING DISEASE” (Halda Therapeutics OpCo, Inc., priority 2022, published 2025)
pIC50, pKi: −log10 of the molar value.

Experiments:
androgen receptor = biological target: T1, androgen receptor (Homo sapiens, UniProt P10275); experiment: Assay for binding affinity to androgen receptor ([3H]methyltrienolone radioligand competition, cell cytosol); details: binding to the androgen receptor, 1 nM [3H]methyltrienolone, 24 hr at 4° C.
T1 construct: host or cells: unnamed cells, cytosolic fraction
T1 sequence (P10275 1-920): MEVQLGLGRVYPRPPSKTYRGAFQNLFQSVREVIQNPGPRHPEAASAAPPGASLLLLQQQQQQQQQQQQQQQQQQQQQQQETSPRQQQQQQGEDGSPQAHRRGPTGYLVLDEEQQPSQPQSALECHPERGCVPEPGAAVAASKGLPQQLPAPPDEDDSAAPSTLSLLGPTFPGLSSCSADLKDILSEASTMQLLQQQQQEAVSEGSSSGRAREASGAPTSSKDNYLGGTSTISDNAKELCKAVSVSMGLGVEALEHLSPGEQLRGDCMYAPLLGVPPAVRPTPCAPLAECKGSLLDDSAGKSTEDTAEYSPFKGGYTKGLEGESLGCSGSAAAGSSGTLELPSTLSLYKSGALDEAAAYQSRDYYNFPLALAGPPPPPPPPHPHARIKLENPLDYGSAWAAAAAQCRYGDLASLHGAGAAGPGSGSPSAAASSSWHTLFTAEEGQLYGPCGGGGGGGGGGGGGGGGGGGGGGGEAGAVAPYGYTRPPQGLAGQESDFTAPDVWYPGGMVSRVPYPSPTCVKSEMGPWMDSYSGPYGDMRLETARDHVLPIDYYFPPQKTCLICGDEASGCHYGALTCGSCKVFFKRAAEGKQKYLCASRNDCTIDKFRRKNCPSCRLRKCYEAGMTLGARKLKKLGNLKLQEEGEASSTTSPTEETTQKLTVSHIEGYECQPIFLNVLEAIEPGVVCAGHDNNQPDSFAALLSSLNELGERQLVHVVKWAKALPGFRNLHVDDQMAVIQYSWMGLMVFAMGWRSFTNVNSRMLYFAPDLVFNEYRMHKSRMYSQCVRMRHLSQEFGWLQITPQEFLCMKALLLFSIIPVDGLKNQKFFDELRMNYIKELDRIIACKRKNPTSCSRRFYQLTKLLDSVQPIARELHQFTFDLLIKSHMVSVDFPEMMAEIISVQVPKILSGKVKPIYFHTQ
Protocol: Fractions of cell cytosol ([…]) were incubated for 24 hr at 4° C. with 1 nM [^3H]methyltrienolone in the absence or presence of the test compound in a buffer containing 25 mM Hepes-Tris (pH 7.4), 1 mM EDTA, 10 mM Na2MoO4, 2 mM DTT, 5 μM triamcinolone acetonide, and 10% glycerol. Nonspecific binding was determined in the presence of […] testosterone. Following incubation, the samples were filtered rapidly under vacuum through glass fiber filters (GF/B, Packard) presoaked with 0.3% PEI and rinsed several times with ice-cold 50 mM Tris-HCl using a 96-sample cell harvester (Unifilter, Packard). The filters were dried then counted for radioactivity in a scintillation counter (Topcount, Packard) using a scintillation cocktail (Microscint 0, Packard). The results are expressed as a percent inhibition of the control radioligand specific binding. The standard reference compound is testosterone, which is tested in each experiment at several concentrations to obtain a competition curve from which its IC50 is calculated.

[1] = test system: T-Rex 293 cell line SC3 cells having increased expression of androgen receptor protein due to exposure to doxycycline; experiment: Cellular growth inhibition, T-Rex 293 SC3 cells with doxycycline (increased androgen receptor expression), CellTiter-Glo; format: cell-based; details: T-Rex 293 SC3 cells with 10 ng/mL doxycycline (increased androgen receptor expression), 72 hours, CellTiter-Glo 2.0
Summary of the method: (§1)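 Growth inhibition is measured in an inducible AR-expressing T-Rex 293 clone, SC3, cultured with or without 10 ng/mL doxycycline in hormone-depleted medium. Test compounds are applied for 72 hours. GI50 values derive from CellTiter-Glo 2.0 signal fitted by four-parameter regression.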

[2] = test system: T-Rex 293 cell line SC3 cells lacking increased expression of androgen receptor protein; experiment: Cellular growth inhibition, T-Rex 293 SC3 cells without doxycycline (no increased androgen receptor expression), CellTiter-Glo; format: cell-based; details: T-Rex 293 SC3 cells not exposed to doxycycline (no increased androgen receptor expression), 72 hours
Summary of the method: as §1

VCaP cells = experiment: Cellular growth inhibition assay for VCaP cells, CellTiter-Glo; format: cell-based, human; details: 72 hours
Summary of the method: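 GI50 values come from four-parameter curve fits of luminescence data normalized to a zero baseline. Compound, in medium with 0.5% DMSO, was added one day after plating and left for 72 h before CellTiter-Glo 2.0 addition.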

T47D cells = experiment: Cellular Growth Inhibition Assay for T47D Cells (CellTiter-Glo); format: cell-based, human; details: 72 hours
Summary of the method: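 GI50 values derive from four-parameter regression of CellTiter-Glo 2.0 luminescence, using zero luminescence as baseline. Human breast cancer T47D cells (3000/well; DMEM, 10% FBS, 0.2 units/mL insulin) were exposed for 72 h to compound dilutions at 0.5% DMSO, with dosing starting 24 h after seeding.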

[3] = biological target: T2, progesterone receptor ligand binding domain (GST-tagged PR LBD) (Homo sapiens, UniProt P06401); experiment: FP Assay for Binding Affinity to Progesterone Receptor (PolarScreen Progesterone Receptor Competitor Assay Kit); details: fluorescence polarization, Fluormone tracer, 2 hours at room temperature
T2 construct: purchased Life Technologies A15905 or a15906
T2 sequence (P06401 679-913 limits assumed): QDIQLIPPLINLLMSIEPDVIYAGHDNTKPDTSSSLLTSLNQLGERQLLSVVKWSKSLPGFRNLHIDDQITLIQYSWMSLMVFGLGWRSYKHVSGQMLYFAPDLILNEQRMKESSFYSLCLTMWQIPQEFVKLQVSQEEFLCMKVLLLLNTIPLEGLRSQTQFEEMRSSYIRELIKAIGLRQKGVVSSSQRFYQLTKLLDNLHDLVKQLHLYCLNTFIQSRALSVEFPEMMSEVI
Protocol: Exemplary compounds were tested for ability to bind to the progesterone receptor ligand binding domain (LBD).
Compounds were tested using the PolarScreen™ Progesterone Receptor Competitor Assay Kit (Life Technologies Cat #A15905 or a15906), as per the manufacturer's instructions. Briefly, GST-tagged PR LBD, Fluormone tracer, and compound were mixed and incubated for 2 hours at room temperature in the dark. Following incubation, the plates were spun at 3000×g for 30 seconds, then sealed with an optical adhesive cover, and fluorescence polarization was measured using appropriate excitation and emission filters with an EnVision Plate Reader (Perkin Elmer). Compound concentration vs. mP value were plotted in Prism (GraphPad). A four-parameter non-linear regression curve fit was applied to dose-response data to determine the half-maximal inhibitory concentration (IC50) for each test compound.

progesterone receptor = biological target: T3, progesterone receptor (Homo sapiens, UniProt P06401); experiment: PR Human Progesterone NHR Binding (Agonist Radioligand) Assay, [3H]progesterone, T47D cytosolic fractions; details: 0.5 nM [3H]progesterone, 1 hour at 4° C.
T3 sequence (P06401 679-933 limits assumed): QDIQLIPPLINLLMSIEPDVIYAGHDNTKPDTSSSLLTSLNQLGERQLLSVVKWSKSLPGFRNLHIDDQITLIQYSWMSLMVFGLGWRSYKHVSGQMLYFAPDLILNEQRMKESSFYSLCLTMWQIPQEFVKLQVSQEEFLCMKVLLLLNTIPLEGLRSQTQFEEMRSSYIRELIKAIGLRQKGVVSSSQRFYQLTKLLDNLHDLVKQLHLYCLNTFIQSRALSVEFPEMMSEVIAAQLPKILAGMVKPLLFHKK
Protocol: Exemplary compounds were tested for ability to bind to the progesterone receptor.
Compounds were tested using the PR Human Progesterone NHR Binding (Agonist Radioligand) Assay, Cerep at Eurofins Discovery using a modified version of the protocol from Sarup et al. (Cancer Res 1988; 48:5071-5078). Briefly, cytosolic fractions of T47D cells were incubated with 0.5 nM [^3H]progesterone for 1 hour at 4° C. in the absence or presence of the test compound. Nonspecific binding was determined in the presence of […] promegestone. Reactions were subjected to scintillation counting. Results are expressed as a percent inhibition of the control radioligand specific binding.

For CCS(=O)(=O)Nc1ccc(Oc2cccc(OCCOC3CCN(c4ccc(C(=O)N[C@H]5C(C)(C)[C@H](Oc6ccc(C#N)c(Cl)c6)C5(C)C)nc4)CC3)c2)c(-c2cn(C)c(=O)c3[nH]ccc23)c1 [Compound I-72, N-((1r, 3r)-3-(3-chloro-4-cyanophenoxy)-2,2,4,4-tetramethylcyclobutyl)-5-(4-(2-(3-(4-(ethylsulfonamido)-2-(6-methyl-7-oxo-6,7-dihydro-1H-pyrrolo[2,3-c]pyridin-4-yl)phenoxy)phenoxy)ethoxy)piperidin-1-yl)picolinamide], the pKi (androgen receptor) was 6.30 to 7.30, the GI50 [1] was under 500 nM and the GI50 [2] was under 500 nM. For the same compound, the GI50 (VCaP cells; Homo sapiens) was under 500 nM.

With Cn1cc(-c2cc(C(C)(C)O)ccc2Oc2cccc(OCCN3CCC34CN(c3ncc(C(=O)N[C@H]5C(C)(C)[C@H](Oc6ccc(C#N)c(Cl)c6)C5(C)C)cn3)C4)c2F)c2cc[nH]c2c1=O [Compound I-222] the GI50 [1] was under 500 nM, the GI50 [2] was 500 to 1500 nM and the GI50 (VCaP cells; Homo sapiens) was under 500 nM. It also gave a GI50 (T47D cells; Homo sapiens) of 500 to 1500 nM and a pIC50 [3] of 5.60 to 6.30.

Work on CCS(=O)(=O)c1ccc(Oc2cccc(CCCC3CCN(c4ncc(C(=O)N[C@H]5C(C)(C)[C@H](Oc6ccc(C#N)c(Cl)c6)C5(C)C)cn4)CC3)c2F)c(-c2cn(C)c(=O)c3[nH]ccc23)c1 [Compound I-245] yielded a GI50 [1] of under 500 nM, a GI50 [2] of over 3000 nM and a GI50 (VCaP cells) of 500 to 1500 nM. The GI50 (T47D cells) was under 500 nM and the pIC50 [3] was 5.60 to 6.30.

For CCS(=O)(=O)c1ccc(Oc2cccc(CCCOC3CC4(C3)CN(c3ccc(C(=O)N[C@H]5C(C)(C)[C@H](Oc6ccc(C#N)c(Cl)c6)C5(C)C)cn3)C4)c2F)c(-c2cn(C)c(=O)c3[nH]ccc23)c1 [Compound I-215], the GI50 [1] was under 500 nM, the GI50 [2] was under 500 nM and the GI50 (VCaP cells; Homo sapiens) was under 500 nM. For the same compound, the GI50 (T47D cells; Homo sapiens) was under 500 nM and the pIC50 [3] was under 5.60.

Cn1cc(-c2cc(C(C)(C)O)ccc2Oc2ccc(F)c(OCCC3CC4(C3)CN(c3ncc(C(=O)N[C@H]5C(C)(C)[C@H](Oc6ccc(C#N)c(Cl)c6)C5(C)C)cn3)C4)c2F)c2cc[nH]c2c1=O [Compound I-225] showed a GI50 [1] of under 500 nM, a GI50 [2] of under 500 nM and a GI50 (VCaP cells) of under 500 nM. The GI50 (T47D cells) was under 500 nM and the pIC50 [3] was over 7.30.

Work on CCS(=O)(=O)Nc1ccc(Oc2cccc(OCCOC3CCN(c4ccc(C(=O)N[C@H]5C(C)(C)[C@H](Oc6ccc(C#N)c(Cl)c6)C5(C)C)cc4)CC3)c2)c(-c2cn(C)c(=O)c3[nH]ccc23)c1 [Compound I-69, N-((1r, 3r)-3-(3-chloro-4-cyanophenoxy)-2,2,4,4-tetramethylcyclobutyl)-4-(4-(2-(3-(4-(ethylsulfonamido)-2-(6-methyl-7-oxo-6,7-dihydro-1H-pyrrolo[2,3-c]pyridin-4-yl)phenoxy)phenoxy)ethoxy)piperidin-1-yl)benzamide] yielded a pKi (androgen receptor) of over 7.30, a GI50 [1] of under 500 nM and a GI50 [2] of under 500 nM. It also gave a GI50 (VCaP cells; Homo sapiens) of under 500 nM.

CCS(=O)(=O)Nc1ccc(Oc2cccc(OCCOC3CCN(c4cnc(C(=O)N[C@H]5C(C)(C)[C@H](Oc6ccc(C#N)c(Cl)c6)C5(C)C)nc4)CC3)c2)c(-c2cn(C)c(=O)c3[nH]ccc23)c1 [Compound I-73, N-((1r, 3r)-3-(3-chloro-4-cyanophenoxy)-2,2,4,4-tetramethylcyclobutyl)-5-(4-(2-(3-(4-(ethylsulfonamido)-2-(6-methyl-7-oxo-6,7-dihydro-1H-pyrrolo[2,3-c]pyridin-4-yl)phenoxy)phenoxy)ethoxy)piperidin-1-yl)pyrimidine-2-carboxamide] gave a pKi (androgen receptor) of 6.30 to 7.30, a GI50 [1] of under 500 nM and a GI50 [2] of under 500 nM. For the same compound, the GI50 (VCaP cells; Homo sapiens) was under 500 nM.

Cn1cc(-c2cc(C(C)(C)O)ccc2Oc2ccc(N3CC(CC4CCN(c5cnc(C(=O)N[C@H]6C(C)(C)[C@H](Oc7ccc(C#N)c(C(F)(F)F)c7)C6(C)C)cn5)CC4)C3)cc2)c2cc[nH]c2c1=O [Compound I-373] showed a GI50 (T47D cells; Homo sapiens) of under 500 nM and a pKi (progesterone receptor) of 5.60 to 6.30.

In the case of Cn1cc(-c2cc(C(C)(C)O)ccc2Oc2cccc(OCCN3CC4(C3)CN(c3ncc(C(=O)N[C@H]5C(C)(C)[C@H](Oc6ccc(C#N)c(Cl)c6)C5(C)C)cn3)C4)c2F)c2cc[nH]c2c1=O [Compound I-229], the GI50 [1] was under 500 nM, the GI50 [2] was 500 to 1500 nM and the GI50 (VCaP cells) was under 500 nM. The GI50 (T47D cells) was under 500 nM and the pIC50 [3] was 6.30 to 7.30.

Cn1cc(-c2cc(C(C)(C)O)ccc2Oc2cccc(OCCN3CCN(c4ncc5c(n4)CN([C@H]4C(C)(C)[C@H](Oc6ccc(C#N)c(Cl)c6)C4(C)C)C5=O)CC3)c2F)c2cc[nH]c2c1=O [Compound I-227] gave a GI50 [1] of under 500 nM, a GI50 [2] of under 500 nM and a GI50 (VCaP cells) of under 500 nM. It also gave a GI50 (T47D cells) of under 500 nM and a pIC50 [3] of over 7.30.

In the case of Cn1cc(-c2cc(C(C)(C)O)ccc2Oc2ccc(OCC3CCN(c4ncc5c(n4)CN([C@H]4C(C)(C)[C@H](Oc6ccc(C#N)c(Cl)c6)C4(C)C)C5=O)CC3)cc2)c2cc[nH]c2c1=O [Compound I-233], the GI50 [1] was 500 to 1500 nM, the GI50 [2] was over 3000 nM and the GI50 (VCaP cells; Homo sapiens) was under 500 nM. The GI50 (T47D cells; Homo sapiens) was 500 to 1500 nM and the pIC50 [3] was under 5.60.
